Measured values as given in patent publication US8765750B2, “Piperazine compound having a PGDS inhibitory effect” (Taiho Pharmaceutical Co., Ltd., priority 2010, dated 2014).
Where two headings read alike, the source gives them in different places.

How the values were obtained:
[1] = biological target: human H-PGDS (Homo sapiens (Human), UniProt O60760); test: Hematopoietic prostaglandin D synthase (H-PGDS) inhibiting action; assay type: biochemical; conditions: for inhibition at 0.1 µM / Inhibition Rate (%) 0.1 μM: compound at 0.1 μM, relative to the control group, human H-PGDS, [14C] prostaglandin H2 10 μM; for inhibition at 0.1 µM: read-out: Inhibition Rate (%) 0.1 μM
human H-PGDS, sequence (O60760 whole entry): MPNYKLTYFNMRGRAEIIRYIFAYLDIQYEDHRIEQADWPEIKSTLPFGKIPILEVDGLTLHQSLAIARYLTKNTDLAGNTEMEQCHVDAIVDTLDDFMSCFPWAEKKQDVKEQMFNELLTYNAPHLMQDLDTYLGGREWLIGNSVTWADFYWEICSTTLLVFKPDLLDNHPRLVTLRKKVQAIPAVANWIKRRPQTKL
Method: The test was carried out according to the method of Urade, Y. et al. (J. Biol. Chem., 262, 3820-3825, (1987)). More specifically, the reaction mixture (49 μL) containing 100 mM Tris-HCl (pH 8.0), 1 mM reduced glutathione, 0.1 mg/mL γ-globulin, and human H-PGDS (q.s.), and a compound (final concentration: 0.01-100 μM) was preincubated at 25° C. for 5 minutes. A DMSO solution (final concentration: 1%) was added to the solvent control group. Subsequently, 1 μL of [^14C] prostaglandin H2 (final concentration: 10 μM) was added to start the reaction. One minute after the start of the reaction, 250 μL of a reaction stop solution (diethylether/methanol/1 M citric acid (30/4/1) at a temperature of −20° C. was added to stop the reaction. After the reaction was stopped, 50 μL of the upper-layer portion (organic solvent layer) was applied to a TLC plate and developed at −20° C. for 45 minutes (developing solvent: diethylether/methanol/acetic acid (90/2/1)). After drying the TLC plate, the TLC plate was exposed to an imaging plate for 1 to 24 hours, and the radioactivity corresponding to prostaglandin D2 (PGD2) was analyzed using an image analyzer (produced by Fujifilm Corporation). […]

[2] = tested on: PGD2 production in the nasal cavities of guinea pigs with antigen-induced rhinitis; test: PGD2 production inhibiting action in the nasal cavities of guinea pigs with antigen-induced rhinitis; assay type: in vivo; conditions: 30 mg/kg orally 1 hour before induction of rhinitis reaction; washing 30 minutes after induction; * = significance level below 0.05 vs control group
Method: A physiological saline solution containing 1 mg/mL of ovalbumin was subcutaneously injected into the back of 5-week-old male Std: Hartley guinea pigs in an amount of 1 mL/body for active sensitization (initial sensitization). One week and two weeks after initial sensitization, 20 μL of a physiological saline solution containing 10 mg/mL of ovalbumin was instilled into each nasal cavity using a micropipette (sensitization by nasal administration). Three weeks after initial sensitization, 20 μL of a physiological saline solution containing 10 mg/mL of ovalbumin was instilled into each nasal cavity using a micropipette to induce a rhinitis reaction.
30 minutes after the induction of a rhinitis reaction, the nasal cavities were washed under pentobarbital sodium anesthesia. A nasal cavity washing liquid (phosphate buffered saline containing 3 mM of EDTA and 10 μM of indomethacin) was flushed using a Peristaltic Pump (Gilson, Inc.) in the direction from the trachea to the upper respiratory tract at a flow rate of 1 mL/min, and the liquid flowing out from the nasal cavities was collected for 1 minute. The collected liquid was centrifuged to separate the supernatant as the nasal cavity washing fluid. The concentration of PGD2 in the nasal cavity washing fluid was determined using an EIA kit (Prostaglandin D2-MOX EIA kit, Cayman Chemical).
The test compound (30 mg/kg) was orally administered 1 hour before induction of a rhinitis reaction. A formula to calculate the rate of decrease in PGD2 in the nasal cavity washing fluid is shown below. Rate (%) of decrease in PGD2 in the nasal cavity washing fluid={(PGD2 concentration in the control group−PGD2 concentration in the compound-administered group)÷(PGD2 concentration in the control group−PGD2 concentration in the normal group)}×100
8 or more cases were obtained from each group to determine whether expression of the PGD2 production inhibiting action occurred, and the PGD2 concentration in the nasal cavity washing fluid was compared between the control group and each compound-administered group. […] When the significance level was below 0.05, the action was considered to be present and indicated by a symbol (*) in the table. Reference Example 18, known as an H-PGDS inhibitor, was used as a positive control substance.

[3] = inhibition concentration at 50% relative to H-PGDS, read-out: IC50

Compound | inhibition at 0.1 µM [1] | IC50 [1, 3] | other results
Cn1cccc1C(=O)N1CCN(C(=O)NC2CCN(c3ccc(CCCn4ccnn4)cc3)CC2)CC1 [Compound 10, 4-((1-methylpyrrol-2-yl)-carbonyl)-N-(1-(4-(3-(1,2,3-triazol-1-yl)-propyl)-phenyl)-piperidin-4-yl)-1-piperazinecarboxamide] | 74.8% | 27 nM | 
Cn1cccc1C(=O)N1CCN(C(=O)NC2CCN(c3ccc(C(=O)NCc4cccnc4)cc3)CC2)CC1 [Compound 2, 4-((1-methylpyrrol-2-yl)-carbonyl)-N-(1-(4-(pyridin-3-ylmethylcarbamoyl)phenyl)-piperidin-4-yl)-1-piperazinecarboxamide] | 55.2% |  | 
O=C(Nc1ccc(C(F)(F)F)cc1)N1CCN(C(=O)c2cccc(F)n2)CC1 [Reference Example 17, 4-(6-fluoropyridine-2-carbonyl)-piperazine-1-carboxylic acid-(4-trifluoromethylphenyl)-amide, reference compound] | 1.8% |  | Rate (%) of decrease in PGD2 in the nasal cavity washing fluid [2]: 31.0%; IC50 [1]: 5820 nM
CON(C)C(=O)c1[nH]c(C)c(-c2nc3ccc(C(=O)c4ccccc4)cc3[nH]2)c1C [Reference Example 18] |  |  | Rate (%) of decrease in PGD2 in the nasal cavity washing fluid [2]: 77.0* %
Cc1cc2nc(NC(=O)N3CCN(C(=O)c4cccc(F)c4)CC3)sc2cc1C [Reference Example 13, 4-(3-fluorobenzoyl)-piperazine-1-carboxylic acid-(5,6-dimethylbenzothiazol-2-yl)-amide, reference compound] | 31.6% |  | Rate (%) of decrease in PGD2 in the nasal cavity washing fluid [2]: 3.9%
Cn1cccc1C(=O)N1CCN(C(=O)NC2CCN(c3ccc(CCCn4cncn4)cc3)CC2)CC1 [Compound 8, 4-((1-methylpyrrol-2-yl)-carbonyl)-N-(1-(4-(3-(1,2,4-triazol-1-yl)-propyl)-phenyl)-piperidin-4-yl)-1-piperazinecarboxamide] | 60.6% |  | 
Cc1nc(C)n(CCCc2ccc(N3CCC(NC(=O)N4CCN(C(=O)c5cccn5C)CC4)CC3)cc2)n1 [Compound 9, 4-((1-methylpyrrol-2-yl)-carbonyl)-N-(1-(4-(3-(3,5-dimethyl-1,2,4-triazol-1-yl)-propyl)-phenyl)-piperidin-4-yl)-1-piperazinecarboxamide] | 54.2% | 61 nM | 
COc1ccc2nc(NC(=O)N3CCN(C(=O)c4cccc(F)c4)CC3)sc2c1 [Reference Example 15, 4-(3-fluorobenzoyl)-piperazine-1-carboxylic acid-(6-methoxybenzothiazol-2-yl)-amide, reference compound] | 20.9% |  | Rate (%) of decrease in PGD2 in the nasal cavity washing fluid [2]: −27.4%
Cn1cccc1C(=O)N1CCN(C(=O)C2CCN(c3ccc(C(=O)O)cn3)CC2)CC1 [Compound 13, 6-(4-(4-((1-methylpyrrol-2-yl)-carbonyl)-1-piperazinecarbamoyl)-piperidin-1-yl)-nicotinic acid] |  |  | Inhibition Rate (%) 0.1 μM [1]: 52.8%
O=C(Nc1nc2ccc(Cl)cc2s1)N1CCN(C(=O)c2cccc(F)c2)CC1 [Reference Example 16, 4-(3-fluorobenzoyl)-piperazine-1-carboxylic acid-(6-chlorobenzothiazol-2-yl)-amide, reference compound] | 33.8% |  | Rate (%) of decrease in PGD2 in the nasal cavity washing fluid [2]: −38.1%
Cn1cccc1C(=O)N1CCN(C(=O)NC2CCN(c3ccc(CCn4ccnn4)cc3)CC2)CC1 [Compound 7, 4-((1-methylpyrrol-2-yl)-carbonyl)-N-(1-(4-(2-(1,2,3-triazol-1-yl)-ethyl)-phenyl)-piperidin-4-yl)-1-piperazinecarboxamide] | 75% | 15 nM | 
4-(4-(4-((1-methylpyrrol-2-yl)-carbonyl)-1-piperazinecarbamoyl)piperidin-1-yl)-benzoic acid [Compound 1] |  | 67 nM | Inhibition Rate (%) 0.1 μM [1]: 57.7%

The next lines start with results.

inhibition at 0.1 µM [1] | IC50 [1, 3] | Compound | other results
57.2% |  | Cn1cccc1C(=O)N1CCN(C(=O)NC2CCN(c3ccc(C(=O)N4CCOCC4)cn3)CC2)CC1 [Compound 14, 4-((1-methylpyrrol-2-yl)-carbonyl)-N-(1-(5-(4-morpholinylcarbonyl)pyridin-2-yl)-piperidin-4-yl)-1-piperazinecarboxamide] | 
63% | 52 nM | Cn1cccc1C(=O)N1CCN(C(=O)NC2CCN(c3ccc(C(=O)N4CCCC4)cc3)CC2)CC1 [Compound 6, 4-((1-methylpyrrol-2-yl)-carbonyl)-N-(1-(4-(1-pyrrolidinylcarbonyl)phenyl)-piperidin-4-yl)-1-piperazinecarboxamide] | 
68.4% |  | CCn1cccc1C(=O)N1CCN(C(=O)NC2CCN(c3ccc(CCn4ccnn4)cc3)CC2)CC1 [Compound 16, 4-((1-ethylpyrrol-2-yl)-carbonyl)-N-(1-(4-(2-(1,2,3-triazol-1-yl)-ethyl)-phenyl)-piperidin-4-yl)-1-piperazinecarboxamide] | 
30% |  | O=C(NCCN1CCOCC1)c1ccc(N2CCC(NC(=O)N3CCN(C(=O)c4ccccc4)CC3)CC2)cc1 [Reference Example 11, 4-benzoyl-N-(1-(4-(2-morpholinoethylcarbamoyl)-phenyl)-piperidin-4-yl)-1-piperazinecarboxamide, reference compound] | 
69.1% | 27 nM | Cn1cccc1C(=O)N1CCN(C(=O)NC2CCN(c3ccc(C(=O)NCCN4CCOCC4)cc3)CC2)CC1 [Compound 3, 4-((1-methylpyrrol-2-yl)-carbonyl)-N-(1-(4-(2-morpholinoethylcarbamoyl)-phenyl)-piperidin-4-yl)-1-piperazinecarboxamide] | 
69.9% | 39 nM | CCn1cccc1C(=O)N1CCN(C(=O)NC2CCN(c3ccc(C(=O)NCCN4CCOCC4)cc3)CC2)CC1 [Compound 15, 4-((1-ethylpyrrol-2-yl)-carbonyl)-N-(1-(4-(2-morpholinoethylcarbamoyl)phenyl)-piperidin-4-yl)-1-piperazinecarboxamide] | 
69.8% | 31 nM | Cn1cccc1C(=O)N1CCN(C(=O)NC2CCN(c3ccc(C(=O)N4CCOCC4)cc3)CC2)CC1 [Compound 4, 4-((1-methylpyrrol-2-yl)-carbonyl)-N-(1-(4-(4-morpholinylcarbonyl)phenyl)-piperidin-4-yl)-1-piperazinecarboxamide] | 
29.2% |  | O=C(NCCN1CCOCC1)c1ccc(N2CCC(NC(=O)N3CCN(C(=O)c4cccs4)CC3)CC2)cc1 [Reference Example 4, 4-((thiophen-2-yl)-carbonyl)-N-(1-(4-(2-morpholinoethylcarbamoyl)-phenyl)-piperidin-4-yl)-1-piperazinecarboxamide, reference compound] | 
53.6% |  | Cn1cccc1C(=O)N1CCN(C(=O)NC2CCN(c3ccc(CCC(=O)N4CCOCC4)cc3)CC2)CC1 [Compound 12, 4-((1-methylpyrrol-2-yl)-carbonyl)-N-(1-(4-(3-morpholino-3-oxopropyl)-phenyl)-piperidin-4-yl)-1-piperazinecarboxamide] | 
67.6% | 41 nM | Cn1cccc1C(=O)N1CCN(C(=O)NC2CCN(c3ccc(C(=O)N4CCCCC4)cc3)CC2)CC1 [Compound 5, 4-((1-methylpyrrol-2-yl)-carbonyl)-N-(1-(4-(1-piperidinylcarbonyl)phenyl)-piperidin-4-yl)-1-piperazinecarboxamide] | Rate (%) of decrease in PGD2 in the nasal cavity washing fluid [2]: 88.0* %
66.7% |  | Cn1cccc1C(=O)N1CCN(C(=O)NC2CCN(c3ccc(C=CC(=O)N4CCOCC4)cc3)CC2)CC1 [Compound 11, 4-((1-methylpyrrol-2-yl)-carbonyl)-N-(1-(4-(3-morpholino-3-oxopropen-1-yl)-phenyl)-piperidin-4-yl)-1-piperazinecarboxamide] | 
